Here are results for 18 compounds from US11345666B2, “Phenyl and pyridinyl substituted imidazoles as modulators of RORγT” (Janssen Pharmaceutica NV, priority 2018, dated 2022).

Test [1] has as its target human RORγt ligand binding domain (RORγt LBD) (Homo sapiens (Human), UniProt P51449). The test can be described thus: RORγt ThermoFluor assay. Put shortly: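 Thermal shift of His-tagged human RORγt LBD (0.065 mg/mL) with 60 μM 1,8-ANS in 100 mM Hepes pH 7.0, 10 mM NaCl, 2.5 mM GSH, 0.002% Tween-20, heated at 1° C./min. Compounds in 1:2 series from a 10 mM DMSO stock; KD estimated from ΔTm using protein unfolding thermodynamics.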
In general terms: Differential scanning fluorimetry follows unfolding on heating by fluorescence.

The target of test [2] is full-length human RORγt (Homo sapiens (Human), UniProt P51449). The test can be described thus: RORγt (full-length human) reporter assay, conditions A or B. Type of test: cell-based. The following applies: for IC50: HEK293T cells, read-out: RORγt (FL) Reporter Assay A or B, IC50; for inhibition at 6 µM: read-out: RORγt (FL) Reporter Assay A or B, % inhibition @ 6 μM, 6 μM compound concentration; for inhibition at 2 µM: 2 μM compound concentration (**); for inhibition at 3 µM: 3 μM compound concentration (*). Put shortly:
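HEK293T cells transiently co-transfected (PEI) with GAL4-DBD–RORγt, GAL4-firefly luciferase and CMV-Renilla reporters; condition A 35,000 cells/well, 170.5 ng DNA/well; condition B 8750 cells/well, 42.6 ng DNA/well.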
On the technique in general: Reporter assays use an easily measured gene product as a stand-in for the process of interest.

Setting [3] is: read-out: RORγt (FL) Reporter Assay A or B, % inhibition.

Marks after values point to notes of the source that are not given here.

human RORγt ligand binding domain (RORγt LBD), sequence (P51449 other isoform, or with tags, fused parts or gaps): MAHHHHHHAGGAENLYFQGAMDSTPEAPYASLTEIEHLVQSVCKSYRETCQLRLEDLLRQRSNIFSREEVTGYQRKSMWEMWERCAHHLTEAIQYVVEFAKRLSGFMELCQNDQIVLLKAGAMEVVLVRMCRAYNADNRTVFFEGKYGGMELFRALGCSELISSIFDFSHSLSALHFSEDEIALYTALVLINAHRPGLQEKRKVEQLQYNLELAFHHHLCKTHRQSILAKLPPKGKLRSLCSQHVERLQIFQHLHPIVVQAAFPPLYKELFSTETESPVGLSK
full-length human RORγt, sequence (P51449 other isoform, or with tags, fused parts or gaps): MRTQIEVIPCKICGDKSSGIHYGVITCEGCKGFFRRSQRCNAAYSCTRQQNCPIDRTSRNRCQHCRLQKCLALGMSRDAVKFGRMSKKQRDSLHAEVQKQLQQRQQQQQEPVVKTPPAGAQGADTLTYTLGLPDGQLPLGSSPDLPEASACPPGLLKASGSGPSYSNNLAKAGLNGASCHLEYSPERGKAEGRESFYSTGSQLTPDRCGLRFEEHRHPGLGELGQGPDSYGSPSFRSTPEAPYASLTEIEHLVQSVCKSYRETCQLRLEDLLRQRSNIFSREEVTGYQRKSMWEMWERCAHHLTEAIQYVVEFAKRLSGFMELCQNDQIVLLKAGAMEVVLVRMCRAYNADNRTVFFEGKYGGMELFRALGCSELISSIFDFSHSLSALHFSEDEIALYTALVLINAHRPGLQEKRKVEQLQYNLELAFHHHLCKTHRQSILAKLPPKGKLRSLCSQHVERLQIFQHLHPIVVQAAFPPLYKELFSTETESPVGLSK

In the case of `CCc1nc(C(=O)NC[C@H]2CC[C@H](S(C)(=O)=O)CC2)c(C#N)n1-c1ccc(CCC(F)(F)F)cc1OC` [Example 21, 5-Cyano-2-ethyl-1-(2-methoxy-4-(3,3,3-trifluoropropyl)phenyl)-N-(((1r,4r)-4-(methylsulfonyl)cyclohexyl)methyl)-1H-imidazole-4-carboxamide], binding in test [1] was put at a Kd of 14 nM. For the same compound, in test [2], the IC50 (as a rule, the concentration that gives 50% inhibition) stood at 94 nM and the inhibition (in general, the change of the read-out against control, counted positive when it falls) at 6 µM stood at 101%.

Turning to `CCc1nc(C(=O)NC[C@H]2CC[C@H](S(C)(=O)=O)CC2)c(Cl)n1-c1ncc(CC(C)(C)C(F)(F)F)cc1OC` [Example 125, 5-Chloro-2-ethyl-1-(3-methoxy-5-(3,3,3-trifluoro-2,2-dimethylpropyl)pyridin-2-yl)-N-(((1r,4r)-4-(methylsulfonyl)cyclohexyl)methyl)-1H-imidazole-4-carboxamide], in test [1], the Kd (as a rule, the equilibrium constant for the complex coming apart) was 1.8 nM. For the same compound, in test [2] (setting [3]), the inhibition at 2 µM worked out at 99%. Moreover, the IC50 in test [2] was 11 nM.

With `CCc1nc(C(=O)NC[C@]2(O)CC[C@@H](S(C)(=O)=O)CC2)c(C#N)n1-c1ccc(CC(C)C(F)(F)F)cc1OC` (stereo partly drawn) [Example 1, 5-Cyano-2-ethyl-N-(((1s,4s)-1-hydroxy-4-(methylsulfonyl)cyclohexyl)methyl)-1-(2-methoxy-4-(3,3,3-trifluoro-2-methylpropyl)phenyl)-1H-imidazole-4-carboxamide], in test [1], binding was characterised by a dissociation constant (Kd) of 4.6 nM. Further, the inhibition at 2 µM in test [2] (setting [3]) was 103%. In test [2], the IC50 turned out to be 40 nM.

In test [1], `COc1cc(CC(C)(C)C(F)(F)F)ccc1-n1cc(C(=O)NC[C@]2(O)CC[C@@H](S(C)(=O)=O)CC2)nc1C` [Example 130, N-(((1s,4s)-1-hydroxy-4-(methylsulfonyl)cyclohexyl)methyl)-1-(2-methoxy-4-(3,3,3-trifluoro-2,2-dimethylpropyl)phenyl)-2-methyl-1H-imidazole-4-carboxamide] showed a Kd of 65 nM. For the same compound, the inhibition at 2 µM in test [2] (setting [3]) was 73%. In addition, the IC50 in test [2] is 540 nM.

Regarding `CCc1nc(C(=O)NC[C@H]2CC[C@H](S(C)(=O)=O)CC2)c(C(N)=O)n1-c1ccc(CCC(F)(F)F)cc1F` [Example 94, 2-Ethyl-1-(2-fluoro-4-(3,3,3-trifluoropropyl)phenyl)-N^4-(((1r,4r)-4-(methylsulfonyl)cyclohexyl)methyl)-1H-imidazole-4,5-dicarboxamide], the Kd in test [1] stood at 250 nM. Besides, in test [2] (setting [3]), the inhibition at 2 µM amounted to 47%. In test [2], the IC50 turned out to be 490 nM.

Compound `CCc1nc(C(=O)NC[C@H]2CC[C@H](S(C)(=O)=O)CC2)cn1-c1cnc(CCC(F)(F)F)cc1OC` [Example 116, 2-Ethyl-1-(4-methoxy-6-(3,3,3-trifluoropropyl)pyridin-3-yl)-N-(((1r,4r)-4-(methylsulfonyl)cyclohexyl)methyl)-1H-imidazole-4-carboxamide] yielded a Kd in test [1] of 5000 nM. In test [2], the half-inhibitory concentration (IC50) is 3000 nM and the inhibition at 6 µM amounted to 30%.

For the compound `Cc1nc(C(=O)NC[C@H]2CC[C@H](S(C)(=O)=O)CC2)cn1-c1ccc(CC(C)(C)C(F)(F)F)cc1OC(F)F` [Example 131, 1-(2-(Difluoromethoxy)-4-(3,3,3-trifluoro-2,2-dimethylpropyl)phenyl)-2-methyl-N-(((1r,4r)-4-(methylsulfonyl)cyclohexyl)methyl)-1H-imidazole-4-carboxamide], the affinity in test [1], expressed as Kd, was 97 nM. For the same compound, in test [2] (setting [3]), the inhibition at 3 µM is 73%. Further, the IC50 in test [2] is 470 nM.

Compound `CCCc1nc(C(=O)NC[C@H]2CC[C@H](S(C)(=O)=O)CC2)c(Cl)n1-c1ccc(N[C@H](C)C(F)(F)F)cc1OC` [Example 11, 5-Chloro-1-(2-methoxy-4-(((R)-1,1,1-trifluoropropan-2-yl)amino)phenyl)-N-(((1r,4R)-4-(methylsulfonyl)cyclohexyl)methyl)-2-propyl-1H-imidazole-4-carboxamide] had a Kd in test [1] of 1 nM. In test [2], the IC50 is 39 nM and the inhibition at 6 µM was 102%.

Turning to `CCc1nc(C(=O)NC[C@H]2CC[C@H](S(C)(=O)=O)CC2)c(C)n1-c1ncc(C[C@@H](C)C(F)(F)F)cc1OC(F)F` (single isomer, unassigned) [Example 80, 1-(3-(Difluoromethoxy)-5-((R*)-3,3,3-trifluoro-2-methylpropyl)pyridin-2-yl)-2-ethyl-5-methyl-N-(((1r,4R)-4-(methylsulfonyl)cyclohexyl)methyl)-1H-imidazole-4-carboxamide], the Kd in test [1] was found to be 58 nM. For the same compound, in test [2] (setting [3]), the inhibition at 3 µM turned out to be 113%. Moreover, the IC50 in test [2] was found to be 54 nM.

For `CCc1nc(C(=O)NC[C@]2(C#N)CC[C@@H](S(C)(=O)=O)CC2)c(C#N)n1-c1ccc(CC(C)(C)C(F)(F)F)cc1OC(F)F` [Example 37, 5-Cyano-N-(((1s*,4s*)-1-cyano-4-(methylsulfonyl)cyclohexyl)methyl)-1-(2-(difluoromethoxy)-4-(3,3,3-trifluoro-2,2-dimethylpropyl)phenyl)-2-ethyl-1H-imidazole-4-carboxamide], the Kd in test [1] amounted to 0.87 nM. Further, the “RORγt (FL) Reporter Assay A or B, % inhibition” value in test [2] (0.67 μM compound concentration (****)) is reported as 105**** %. Moreover, the half-inhibitory concentration (IC50) in test [2] is 5.3 nM.

In turn, `CCc1nc(C(=O)NC[C@H]2CC[C@H](S(N)(=O)=O)CC2)c(Cl)n1-c1ncc(CC(C)(C)C(F)(F)F)cc1OC(F)F` [Example 69, 5-Chloro-1-(3-(difluoromethoxy)-5-(3,3,3-trifluoro-2,2-dimethylpropyl)pyridin-2-yl)-2-ethyl-N-(((1r,4r)-4-sulfamoylcyclohexyl)methyl)-1H-imidazole-4-carboxamide] came in with a Kd in test [1] of 7.2 nM. In addition, the inhibition at 3 µM in test [2] (setting [3]) worked out at 102%. Moreover, the IC50 in test [2] is 39 nM.

For the compound `CCc1nc(C(=O)NC[C@]2(O)CC[C@@H](S(C)(=O)=O)CC2)c(C#N)n1-c1ncc(CCC(F)(F)F)cc1OC` [Example 120, 5-Cyano-2-ethyl-N-(((1s,4s)-1-hydroxy-4-(methylsulfonyl)cyclohexyl)methyl)-1-(3-methoxy-5-(3,3,3-trifluoropropyl)pyridin-2-yl)-1H-imidazole-4-carboxamide], in test [1], the affinity, expressed as Kd, was 830 nM. Besides, in test [2], the 50% inhibitory concentration (IC50) worked out at 1400 nM and the inhibition at 6 µM is 57%.

`CCc1nc(C(=O)NC[C@]2(O)CC[C@@H](S(C)(=O)=O)CC2)c(C#N)n1-c1ccc(CCC(F)(F)F)cc1OC(F)F` [Example 25, 5-Cyano-1-(2-(difluoromethoxy)-4-(3,3,3-trifluoropropyl)phenyl)-2-ethyl-N-(((1s,4s)-1-hydroxy-4-(methylsulfonyl)cyclohexyl)methyl)-1H-imidazole-4-carboxamide]: binding in test [1] was characterised by a dissociation constant (Kd) of 84 nM. In test [2], the IC50 came out at 370 nM and the inhibition at 6 µM amounted to 101%.

`CCc1nc(C(=O)NC[C@]2(O)CC[C@@H](S(C)(=O)=O)CC2)c(Cl)n1-c1c(F)cc(CC(O)(C(F)(F)F)C(F)(F)F)cc1F` [Example 108, 5-Chloro-1-(2,6-difluoro-4-(3,3,3-trifluoro-2-hydroxy-2-(trifluoromethyl)propyl)phenyl)-2-ethyl-N-(((1s,4s)-1-hydroxy-4-(methylsulfonyl)cyclohexyl)methyl)-1H-imidazole-4-carboxamide] came in with an equilibrium dissociation constant (Kd) in test [1] of 100 nM. Besides, in test [2], the IC50 is 340 nM and the inhibition at 6 µM came to 99%.

Consider `CCc1nc(C(=O)NC[C@H]2CC[C@H](S(C)(=O)=O)CC2)c(Cl)n1-c1ccc(CC(C)(C)C(F)(F)F)c(OC)c1` [Example 42, 5-Chloro-2-ethyl-1-(3-methoxy-4-(3,3,3-trifluoro-2,2-dimethylpropyl)phenyl)-N-(((1r,4r)-4-(methylsulfonyl)cyclohexyl)methyl)-1H-imidazole-4-carboxamide], for which the affinity in test [1], expressed as Kd, was 1.1 nM. In test [2] (0.22 μM compound concentration (******), read-out: RORγt (FL) Reporter Assay A or B, % inhibition), the inhibition at 0.22 µM is 66%. In addition, the IC50 in test [2] is 6.2 nM.

Compound `CCc1nc(C(=O)NC[C@]2(C#N)CC[C@@H](S(C)(=O)=O)CC2)c(F)n1-c1ccc(CC(C)(C)C(F)(F)F)cc1OC(F)F` [Example 38, N-(((1s*,4s*)-1-Cyano-4-(methylsulfonyl)cyclohexyl)methyl)-1-(2-(difluoromethoxy)-4-(3,3,3-trifluoro-2,2-dimethylpropyl)phenyl)-2-ethyl-5-fluoro-1H-imidazole-4-carboxamide] gave a Kd in test [1] of 4.4 nM. Also, in test [2] (0.67 μM compound concentration (****), read-out: RORγt (FL) Reporter Assay A or B, % inhibition), the inhibition at 0.67 µM came to 97%. For the same compound, the IC50 in test [2] came to 19 nM.

In turn, `[2H]C([2H])([2H])Oc1cc(CC(C)(C)C(F)(F)F)ccc1-n1c(CC)nc(C(=O)NC[C@]2(O)CC[C@@H](S(C)(=O)=O)CC2)c1C#N` [Example 28, 5-Cyano-2-ethyl-N-(((1s,4s)-1-hydroxy-4-(methylsulfonyl)cyclohexyl)methyl)-1-(2-(methoxy-d3)-4-(3,3,3-trifluoro-2,2-dimethylpropyl)phenyl)-1H-imidazole-4-carboxamide] came in with a Kd in test [1] of 2.5 nM. Also, in test [2] (setting [3]), the inhibition at 2 µM came out at 102%. Moreover, in test [2], the IC50 was determined as 33 nM.

On to `[2H]C([2H])([2H])Oc1cc(CCC(F)(F)F)ccc1-n1c(CC)nc(C(=O)NC[C@H]2CC[C@H](S(C)(=O)=O)CC2)c1C#N` [Example 29, 5-Cyano-2-ethyl-1-(2-(methoxy-d3)-4-(3,3,3-trifluoropropyl)phenyl)-N-(((1r,4r)-4-(methylsulfonyl)cyclohexyl)methyl)-1H-imidazole-4-carboxamide], for which the Kd in test [1] turned out to be 15 nM. Also, in test [2], the IC50 came out at 87 nM and the inhibition at 6 µM turned out to be 95%.
